Key:
Format in all cases: cell-based
[1] = tested on: SH-SY5Y (human neuroblastoma) cells; test: Cell viability, Cell Titer Glo 2.0 assay; conditions: read-out: Viability SHSY5Y.3 GI50
How it was run: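 Viability was read by CellTiter-Glo 2.0 luminescence after a 72-hour compound exposure at 37° C. under 5% CO2. Cells were in IMDM plus 10% FBS containing 0.1% DMSO, and medium-only wells gave the blank.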

[2] = tested on: SMN2 mRNA; test: Gene panel canonical junction qPCR assay, decrease in CJ mRNA, Table 3
How it was run: (§1)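 IC50 denotes the concentration giving 50% decrease in canonical-junction mRNA, fitted by 4-parameter logistic to percentage response derived from ΔΔCt versus housekeeping gene and DMSO control. Cells (A673 or K562) exposed 24 h to 11-point 3-fold serial dilutions from 10 uM top, DMSO ≤0.25%; junction-spanning primer/probe qPCR.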

[3] = tested on: HTT mRNA; test: as above
How it was run: as §1

[4] = tested on: MYB mRNA; test: as above
How it was run: as §1

[5] = decrease in canonical junction (CJ) mRNA, gene panel qPCR, Table 3
[6] = decrease in CJ mRNA levels, canonical junction qPCR, gene panel

GI50 [1] [nM]	IC50 [2, 5] [nM]	IC50 [3, 5] [nM]	IC50 [4, 5] [nM]	IC50 [2, 6] [nM]	IC50 [3, 6] [nM]	IC50 [4, 6] [nM]	Compound
100 to 1000	> 10000	1000 to 10000	> 10000	–	–	–	CCNC1CCN(c2ccc(C(=O)Nc3cc(F)c4nc(C(C)C)cn4c3)c3nn(C)cc23)CC1 [Compound 177, 4-[4-(ethylamino)-1-piperidyl]-N-(8-fluoro-2-isopropyl-imidazo[1,2-a]pyridin-6-yl)-2-methyl-indazole-7-carboxamide]
< 100	< 100	< 100	< 100	–	–	–	COc1c(NC(=O)c2c(F)cc(N3CCC(NC4CC4)CC3)c3cn(C)nc23)cn2cc(C)nc2c1F [Compound 207, 4-[4-(cyclopropylamino)-1-piperidyl]-6-fluoro-N-(8-fluoro-7-methoxy-2-methyl-imidazo[1,2-a]pyridin-6-yl)-2-methyl-indazole-7-carboxamide]
100 to 1000	< 100	100 to 1000	100 to 1000	–	–	–	CCNC1CCN(c2ccc(C(=O)Nc3cn4cc(C)nc(C)c4n3)c3nn(C)cc23)CC1 [Compound 181, N-(6,8-dimethylimidazo [1,2-a]pyrazin-2-yl)-4-[4-(ethylamino)-1-piperidyl]-2-methyl-indazole-7-carboxamide]
1000 to 10000	100 to 1000	1000 to 10000	1000 to 10000	–	–	–	CCNC1CCN(c2ccc(C(=O)Nc3cc(F)c4nc(CC)cn4c3)c3nn(C)cc23)CC1 [Compound 201, 4-[4-(ethylamino)-1-piperidyl]-N-(2-ethyl-8-fluoro-imidazo[1,2-a]pyridin-6-yl)-2-methyl-indazole-7-carboxamide]
> 10000	1000 to 10000	> 10000	> 10000	–	–	–	Cc1cn2cc(NC(=O)c3ccc(N4C[C@H](C)N[C@@H](C)C4)c4[nH]nnc34)cc(F)c2n1 [Compound 242, 7-[(3S,5S)-3,5-dimethylpiperazin-1-yl]-N-(8-fluoro-2-methyl-imidazo[1,2-a]pyridin-6-yl)-1H-benzotriazole-4-carboxamide]
> 10000	100 to 1000	> 10000	1000 to 10000	–	–	–	CN[C@H]1CCN(c2ccc(C(=O)Nc3cc(F)c4nc(C)cn4c3)c3nn(C)cc23)[C@H]1C (single isomer, unassigned) [Compound 152]
1000 to 10000	1000 to 10000	> 10000	> 10000	–	–	–	CCNC1CCN(c2ccc(C(=O)Nc3cc4cn(C)nc4cc3OC)c3[nH]ccc23)CC1 [Compound 178, 4-[4-(ethylamino)-1-piperidyl]-N-(6-methoxy-2-methyl-indazol-5-yl)-1H-indole-7-carboxamide]
100 to 1000	< 100	> 10000	< 100	–	–	–	CCN[C@@H]1CCN(c2cc(O)c(C(=O)Nc3cc(F)c4nc(C)cn4c3)c3nn(C)cc23)C1 [Compound 144, 4-[3-(ethylamino)pyrrolidin-1-yl]-N-(8-fluoro-2-methyl-imidazo[1,2-a]pyridin-6-yl)-6-hydroxy-2-methyl-indazole-7-carboxamide]
100 to 1000	–	–	–	< 100	100 to 1000	< 100	COc1c(NC(=O)c2c(F)cc(N3CCNCC3)c3cn[nH]c23)cn2cc(C)nc2c1F [Compound 607, 6-fluoro-N-(8-fluoro-7-methoxy-2-methyl-imidazo[1,2-a]pyridin-6-yl)-4-piperazin-1-yl-1H-indazole-7-carboxamide]
1000 to 10000	< 100	> 10000	100 to 1000	–	–	–	CN[C@H]1CCN(c2ccc(C(=O)Nc3cc(F)c4nc(C)cn4c3)c3nnn(C)c23)C1 [Compound 166, (S)-N-(8-fluoro-2-methylimidazo-[1,2-a]pyridin-6-yl)-1-methyl-7-(3-(methylamino)pyrrolidin-1-yl)-1H-benzo[d]-[1,2,3]triazole-4-carboxamide]
1000 to 10000	< 100	> 10000	100 to 1000	–	–	–	CCNC1CCN(c2ccc(C(=O)Nc3cc(F)c4nc(C)cn4c3)c3nnn(C)c23)CC1 [Compound 199, 7-[4-(ethylamino)-1-piperidyl]-N-(8-fluoro-2-methylimidazo[1,2-a]-pyridin-6-yl)-1-methylbenzotriazole-4-carboxamide]
< 100	< 100	100 to 1000	< 100	–	–	–	Cc1cn2cc(NC(=O)c3ccc(N4CCC(NC5CC5)CC4)c4cc(C)nn34)cc(F)c2n1 [Compound 209, 4-[4-(cyclopropylamino)-1-piperidyl]-N-(8-fluoro-2-methyl-imidazo[1,2-a]pyridin-6-yl)-2-methyl-pyrazolo[1,5-a]pyridine-7-carboxamide]
100 to 1000	< 100	100 to 1000	< 100	–	–	–	Cc1cn2cc(NC(=O)c3ccc(N4CCC(NC5CC56CC6)CC4)c4cn(C)nc34)cc(F)c2n1 (stereo not drawn) [Compound 203, N-(8-fluoro-2-methyl-imidazo[1,2-a]-pyridin-6-yl)-2-methyl-4-[4-(spiro[2.2]pentan-2-ylamino)-1-piperidyl] indazole-7-carboxamide]
> 10000	100 to 1000	1000 to 10000	1000 to 10000	–	–	–	CCNC1CCN(c2ccc(C(=O)Nc3cc(F)c4nc(COC)cn4c3)c3nn(C)cc23)CC1 [Compound 284, 4-[4-(ethylamino)-1-piperidyl]-N-[8-fluoro-2-(methoxymethyl)imidazo[1,2-a]pyridin-6-yl]-2-methyl-indazole-7-carboxamide]

The remaining lines, values behind:

Compound	GI50 [1] [nM]	IC50 [2, 5] [nM]	IC50 [3, 5] [nM]	IC50 [4, 5] [nM]	IC50 [2, 6] [nM]	IC50 [3, 6] [nM]	IC50 [4, 6] [nM]
Cc1cn2cc(NC(=O)c3ccc(N4CCC(NC5CC5)CC4)c4cn(C)nc34)nc2c(C)n1 [Compound 297, 4-[4-(cyclopropylamino)-1-piperidyl]-N-(6,8-dimethylimidazo[1,2-a]pyrazin-2-yl)-2-methyl-indazole-7-carboxamide]	1000 to 10000	< 100	> 10000	100 to 1000	–	–	–
Cc1cn2cc(NC(=O)c3ccc(N4C[C@@H](C)N[C@@H](C)C4)c4[nH]cnc34)cc(F)c2n1 [Compound 220, 7-[(3R,5S)-3,5-dimethylpiperazin-1-yl]-N-(8-fluoro-2-methyl-imidazo[1,2-a]pyridin-6-yl)-1H-1,3-benzodiazole-4-carboxamide]	1000 to 10000	100 to 1000	1000 to 10000	100 to 1000	–	–	–
Cc1cn2cc(NC(=O)c3ccc(N4CCNCC4=O)c4[nH]cnc34)cc(F)c2n1 [Compound 257, N-(8-fluoro-2-methyl-imidazo[1,2-a]-pyridin-6-yl)-7-(2-oxopiperazin-1-yl)-1H-benzimidazole-4-carboxamide]	> 10000	1000 to 10000	> 10000	> 10000	–	–	–
CCNC1CCN(c2ccc(C(=O)Nc3cc(F)c4nc(C)oc4c3)c3nn(C)cc23)CC1 [Compound 200, 4-(4-(ethylamino)piperidin-1-yl)-N-(4-fluoro-2-methylbenzo[d]-oxazol-6-yl)-2-methyl-2H-indazole-7-carboxamide]	100 to 1000	< 100	100 to 1000	100 to 1000	–	–	–
CCNC1CCN(c2ccc(C(=O)Nc3cc(F)c4nc(C)cn4c3)c3nn(C)nc23)CC1 [Compound 196, 7-[4-(ethylamino)piperidin-1-yl]-N-(8-fluoro-2-methyl-imidazo[1,2-a]pyridin-6-yl)-2-methyl-1,2,3-benzotriazole-4-carboxamide]	1000 to 10000	< 100	100 to 1000	100 to 1000	–	–	–
Cc1cn2cc(NC(=O)c3ccc(N4CCC(NC5CC5(C)C)CC4)c4cn(C)nc34)cc(F)c2n1 (stereo not drawn) [Compound 205, 4-(4-((2,2-dimethylcyclopropyl)amino)piperidin-1-yl)-N-(8-fluoro-2-methylimidazo[1,2-a]pyridin-6-yl)-2-methyl-2H-indazole-7-carboxamide]	100 to 1000	< 100	1000 to 10000	< 100	–	–	–
Cc1cn2cc(NC(=O)c3c(F)cc(N4CC[C@H](NCC56CC(CO5)C6)C4)c4cn(C)nc34)cc(F)c2n1 [Compound 157, 6-fluoro-N-(8-fluoro-2-methyl-imidazo[1,2-a]pyridin-6-yl)-2-methyl-4-[(3S)-3-(2-oxabicyclo[2.1.1]hexan-1-ylmethylamino)pyrrolidin-1-yl]indazole-7-carboxamide]	1000 to 10000	< 100	> 10000	100 to 1000	–	–	–
Cc1cn2cc(NC(=O)c3c(F)cc(N4CCNCC4)c4occc34)cc(F)c2n1 [Compound 247, 5-fluoro-N-(8-fluoro-2-methylimidazo-[1,2-a]pyridin-6-yl)-7-piperazin-1-yl-benzofuran-4-carboxamide]	1000 to 10000	1000 to 10000	> 10000	> 10000	–	–	–
CN[C@H]1CCN(c2c(O)cc(C(=O)Nc3cc(F)c4nc(C)cn4c3)c3nn(C)cc23)C1 [Compound 149, N-(8-fluoro-2-methyl-imidazo[1,2-a]pyridin-6-yl)-5-hydroxy-2-methyl-4-[(3S)-3-(methylamino)pyrrolidin-1-yl]-indazole-7-carboxamide]	1000 to 10000	100 to 1000	1000 to 10000	1000 to 10000	–	–	–
CCNC1CCN(c2ccc(C(=O)Nc3cc(OC)c4nc(C)cn4c3)c3nn(C)cc23)CC1 [Compound 175, 4-(4-(ethylamino)piperidin-1-yl)-N-(8-methoxy-2-methyl-imidazo-[1,2-a]pyridin-6-yl)-2-methyl-2H-indazole-7-carboxamide]	1000 to 10000	< 100	100 to 1000	100 to 1000	–	–	–
